According to patent US20090068290A1, “BIFEPRUNOX DOSES FOR TREATING SCHIZOPHRENIA” (priority 2006, published 2009):

Columns and labels:
[1] = Food effect on bifeprunox PK (standard high-fat meal)
From the text: The objective of this study is to assess the pharmacokinetics (PK) of bifeprunox. The PK of bifeprunox in healthy subjects were investigated based on a pooled analysis of PK parameters from 21 clinical pharmacology studies. The pooled analysis included PK profiles after single and multiple doses to 132 and 399 subjects, respectively, and explored the potential effects of age, gender, body weight, and race. In addition, PK in patients with schizophrenia were investigated using a population PK approach based on samples from 376 patients in phase II studies and 434 patients in phase III studies.

[2] = Pooled metabolic analysis, 6-week studies: glucose
From the text: (§1) OBJECTIVE: To examine the metabolic effects of bifeprunox in patients with acute and stable schizophrenia.
(§2) METHODS: Metabolic data was compiled from one 6-month and four 6-week studies (i.e., a treatment period) of bifeprunox in patients with stable and acute schizophrenia, respectively. In the 6-month study, patients received bifeprunox (n=331) or placebo (PBO) (n=166). […] Metabolic evaluations included body weight, body mass index (BMI), plasma glucose and lipid profiles. Fasting glucose and lipid values were assessed in one 6-week study and in the 6-month study. Triglyceride:HDL ratio (TG:HDL) was calculated as a marker of insulin resistance. No statistical analyses were performed; only descriptive statistics are presented.

[3] = tested on: patients with chronic schizophrenia; assay: Movement rating scales SAS, BAS, AIMS, Clinical Study Four; assay type: in vivo, human; conditions: for AIMS total score at Month 6: APTS; for proportion of patients normal with respect to SAS status: Month 6
Procedure: (§3) METHODOLOGY: This study was a multinational, multicenter, randomized, double-blind, parallel-group, placebo-controlled, fixed-dose study. The study consisted of a 3- to 6-day antipsychotic-free run-in period, after which patients were randomised to 6 months of double-blind treatment with fixed doses of bifeprunox (20 mg/day (BX20) or 30 mg/day (BX30)) or placebo (PBO). Patients allocated to the BX groups were up-titrated from 0.25 mg/day over 7 days (BX20) or 8 days (BX30), and then continued on these doses for the remainder of the study. […] At predetermined time points, blood samples were obtained for drug concentration analysis of BX and its major metabolites (3′- and 4′-sulfate conjugates of BX), and pharmaco-economic assessments were performed.
The SAS is used to measure Parkinsonian-type symptoms in patients exposed to antipsychotics. The scale consists of 10 items, each rated on a 5-point scale ranging from 0 (complete absence of the condition) to 4 (presence of the condition in extreme form). The SAS total score is defined as the sum of all item scores, and the range is 0 to 40. A SAS total score of up to 3 is considered normal.
The BAS is used to rate observable, restless movements of drug-induced akathisia as well as the subjective awareness of restlessness and any distress associated with the akathisia. The scale consists of 3 items that is rated from 0 (no evidence of akathisia) to 3 (severe akathisia). The BAS total score is defined as the sum of the these three BAS item scores and ranges from is 0 to 9. In addition, a global clinical assessment of akathisia is rated from 0 (no evidence of akathisia) to 5 (severe akathisia).
The AIMS, designed to record the occurrence of dyskinetic movements, consists of 12 items. Items 1 to 7 measure specific involuntary movements on a scale from 0 (none) to 4 (severe). Items 8 to 10 measure global assessment of abnormal movement on a scale from 0 (no awareness) to 4 (aware, severe distress). Items 11 and 12 are questions regarding the dental condition of the patient, with yes/no answers. The total score is calculated by summing AIMS items 1 through 10 and ranges from 0 to 40; the non-global total score is calculated by summing items 1 through 7.

[4] = Pooled metabolic analysis, 6-month study: body weight; conditions: for Weight, Mean (SD) change from baseline: endpoint
From the text: as §1, §2

[5] = Clinical laboratory assessments (lipid shifts, thyroid function), Clinical Study Two; assay type: in vivo, human
Procedure: Pharmacokinetic (PK) data of bifeprunox in schizophrenic subjects were also assessed and are presented in a separate report (combined with data from study S1543003).
Subjects who completed this study had the option to continue in the long-term. […] Risperidone-treated subjects were titrated from 2 mg to 6 mg daily over a three-day period and were subsequently maintained at 6 mg/day for the remainder of the treatment period. […] Blood samples were also obtained at Screening/Baseline, Week 3, and Week 6 for clinical laboratory assessments.

[6] = tested on: patients with chronic schizophrenia; assay: BPRS total and psychosis cluster scores, Clinical Study Four; assay type: in vivo, human; conditions: FAS, LOCF, ANCOVA
Procedure: as §3

[7] = baseline BMI 18.5-25 kg/m^2, BX total doses
[8] = baseline BMI <18.5 kg/m^2, BX total doses
[9] = baseline BMI >25-30 kg/m^2, BX total doses
[10] = baseline BMI >30 kg/m^2, BX total doses
[11] = baseline BMI All, BX total doses

O=c1[nH]c2cccc(N3CCN(Cc4cccc(-c5ccccc5)c4)CC3)c2o1 [Bifeprunox, 7-[4-([1,1′-biphenyl]-3-ylmethyl)-1-piperazinyl]-2(3H)-benzoxazolone]
increase in AUC with a standard high-fat meal ([1]; 40 mg dose): 29%
increase in Cmax with a standard high-fat meal ([1]; 40 mg dose): 10%
Tmax ([1]; human, plasma, oral, 40 mg): 1.5 h
change in mean fasting glucose at endpoint [2]: -1.44 mg/dL
decrease in mean fasting glucose at endpoint [2]: 1.6%
AIMS score, mean (SD) ([3]; BX20, Baseline, LOCF): 1.04 (2.76)
BAS score, mean (SD) ([3]; BX20, Baseline, LOCF): 0.44 (1.10)
SAS score, mean (SD) ([3]; BX20, Baseline, LOCF): 2.27 (3.72)
AIMS score, mean (SD) ([3]; BX20, Baseline, OC): 1.04 (2.76)
BAS score, mean (SD) ([3]; BX20, Baseline, OC): 0.46 (1.10)
SAS score, mean (SD) ([3]; BX20, Baseline, OC): 2.27 (3.72)
AIMS score, mean (SD) ([3]; BX20, Month 6, LOCF): 1.55 (3.92)
BAS score, mean (SD) ([3]; BX20, Month 6, LOCF): 0.49 (1.25)
SAS score, mean (SD) ([3]; BX20, Month 6, LOCF): 1.22 (2.47)
AIMS score, mean (SD) ([3]; BX20, Month 6, OC): 1.08 (2.13)
BAS score, mean (SD) ([3]; BX20, Month 6, OC): 0.17 (0.42)
SAS score, mean (SD) ([3]; BX20, Month 6, OC): 0.97 (2.20)
AIMS score, mean (SD) ([3]; BX20, Week 6, LOCF): 1.59 (3.96)
BAS score, mean (SD) ([3]; BX20, Week 6, LOCF): 0.49 (1.21)
SAS score, mean (SD) ([3]; BX20, Week 6, LOCF): 1.43 (2.77)
AIMS score, mean (SD) ([3]; BX20, Week 6, OC): 1.16 (2.55)
BAS score, mean (SD) ([3]; BX20, Week 6, OC): 0.36 (0.99)
SAS score, mean (SD) ([3]; BX20, Week 6, OC): 1.31 (2.69)
AIMS total score at Month 6 ([3]; BX20, OC): 1.08
proportion of patients normal with respect to SAS status ([3]; BX20): 89%
AIMS score, mean (SD) ([3]; BX30, Baseline, LOCF): 1.35 (2.79)
BAS score, mean (SD) ([3]; BX30, Baseline, LOCF): 0.45 (1.11)
SAS score, mean (SD) ([3]; BX30, Baseline, LOCF): 2.33 (3.53)
AIMS score, mean (SD) ([3]; BX30, Baseline, OC): 1.35 (2.79)
SAS score, mean (SD) ([3]; BX30, Baseline, OC): 2.33 (3.53)
AIMS score, mean (SD) ([3]; BX30, Month 6, LOCF): 2.77 (6.09)
SAS score, mean (SD) ([3]; BX30, Month 6, LOCF): 2.09 (3.64)
AIMS score, mean (SD) ([3]; BX30, Month 6, OC): 0.86 (3.18)
BAS score, mean (SD) ([3]; BX30, Month 6, OC): 0.16 (0.65)
SAS score, mean (SD) ([3]; BX30, Month 6, OC): 1.16 (2.78)
AIMS score, mean (SD) ([3]; BX30, Week 6, LOCF): 2.83 (6.09)
BAS score, mean (SD) ([3]; BX30, Week 6, LOCF): 0.66 (1.55)
SAS score, mean (SD) ([3]; BX30, Week 6, LOCF): 2.35 (3.87)
AIMS score, mean (SD) ([3]; BX30, Week 6, OC): 1.80 (4.25)
SAS score, mean (SD) ([3]; BX30, Week 6, OC): 2.06 (3.41)
AIMS total score at Month 6 ([3]; BX30, OC): 0.86
proportion of patients normal with respect to SAS status ([3]; BX30): 78%
≧7% weight decrease, (%) [4, 7]: 8.7%
≧7% weight increase, (%) [4, 7]: 3.3%
≧7% weight decrease, (%) [4, 8]: 23.1%
≧7% weight decrease, (%) [4, 9]: 4.7%
≧7% weight increase, (%) [4, 9]: 2.4%
≧7% weight decrease, (%) [4, 10]: 12.8%
≧7% weight decrease, (%) [4, 11]: 8.8%
≧7% weight increase, (%) [4, 11]: 2.5%
Weight, Mean (SD) change from baseline [4, 7]: −0.9 (2.9) kg
Weight, Mean (SD) change from baseline [4, 8]: −0.8 (2.6) kg
Weight, Mean (SD) change from baseline [4, 9]: −0.9 (2.7) kg
Weight, Mean (SD) change from baseline [4, 10]: −3.0 (5.6) kg
Weight, Mean (SD) change from baseline [4, 11]: −1.1 (3.3) kg
mean weight change ([4]; final evaluation (LOCF)): -1.1 kg
mean change in weight ([4]; patients with nausea or vomiting): -1.4 kg
mean change in weight ([4]; patients without nausea or vomiting): -1.0 kg
incidence of N to H shifts in tri-iodine thyronine ([5]; Bifeprunox 30 mg): 6%
incidence of N to L shifts in TSH ([5]; Bifeprunox 30 mg): 4%
incidence of N to H shifts in tri-iodine thyronine ([5]; Bifeprunox 40 mg): 5%
incidence of N to L shifts in TSH ([5]; Bifeprunox 40 mg): 5%
shifts in lipids compared with the placebo and risperidone groups ([5]; bifeprunox 30, 40 mg, 6 weeks): lower incidence of N to H shifts in triglycerides, VLDL, and LDL
BPRS psychosis cluster, Adjusted Mean Change from Baseline (LS mean) ([6]; Month 6, listed as BX20): −0.1
BPRS total, Adjusted Mean Change from Baseline (LS mean) ([6]; Month 6, listed as BX20): −0.1
BPRS psychosis cluster, Adjusted Mean Change from Baseline (LS mean) ([6]; Month 6, listed as BX30): −0.2
BPRS total, Adjusted Mean Change from Baseline (LS mean) ([6]; Month 6, listed as BX30): 0.5
BPRS psychosis cluster, Adjusted Mean Change from Baseline (LS mean) ([6]; Week 6, listed as BX20): −0.8
BPRS total, Adjusted Mean Change from Baseline (LS mean) ([6]; Week 6, listed as BX20): −2.1
BPRS psychosis cluster, Adjusted Mean Change from Baseline (LS mean) ([6]; Week 6, listed as BX30): −0.7
BPRS total, Adjusted Mean Change from Baseline (LS mean) ([6]; Week 6, listed as BX30): −1.3
